We go through 1 compound from patent US6989390B2, “Amonafide salts” (priority 2002, dated 2006).

Series [1] concerns SF268 (Glioma). As to the kind of experiment: Cytotoxic activity in vitro, percent net growth (SRB/MTT). The following applies: SF268, 48 hours. In kind it is cell-based. On the procedure: (§1) These cell lines are used by the National Cancer Institute: Developmental Therapeutics Branch in their preliminary screening process for antineoplastic agents. Subsequently, Amonafide Malate was tested against a larger panel of breast, lung and colon cell lines
(§2) Cells were grown in RPMI 1640 medium containing 5% fetal bovine serum and 2 mM L-glutamine. Dependent upon cell doubling time, between 5,000 and 40,000 cells were inoculated into 96 well microtiter plates in a volume of 100 uL per well. The plates were incubated at 37° C., 5% CO2, 95% air, and 100% relative humidity for 24 hours prior to the addition of the experimental drug. After the, 24 hour incubation, two (2) plates of each cell line were fixed in situ with trichloroacetic acid (TCA) to establish the cell population at time of drug addition (Tz).
(§3) Prior to use, the experimental drugs were solubilized in dimethyl sulfoxide at 400-fold the desired final maximum test concentration and frozen. At time of drug addition, an aliquot of frozen concentrate was thawed and diluted to twice the desired final maximum test concentration with complete medium containing 50 ug/ml gentamicin. An additional four (4) 10-fold or ½ log serial dilutions was made for a total of five (5) drug concentrations plus a control. An aliquot of 100 ul of each drug dilution was added to the appropriate well that already contains 100 ul of medium containing the cells. The plates were then incubated for 48 hours at 37° C., 5% CO2; 95% air and 100% relative humidity.
(§4) The number of viable cells was estimated by either a SRB or MTT calorimetric assays.
(§5) For SRB assay, cells were fixed in situ by the gentle addition of 50 ul cold (w/v) TCA (final concentration, 10% TCA) and incubated for 60 minutes at 4° C. The supernatant was discarded, plates washed five (5) times with tap water and air dried. Then Sulforhodamine B (SRB) solution (100 μl) at a 0.4% (w.v.) in 1% acetic acid was added to each well, and the plates incubated for 10 minutes at room temperature. Unbound dye was removed by washing five (5) times with 1% acetic acid and the plates were air dried. The bound stain was solubilized with 10 mM trizma base and the absorbance was read on an automated plate reader at a wavelength of 515 nm.
(§6) The MTT assay measures the ability of viable cells to reduce a tetrazolium salt (MTT) to an insoluble form, a formazan salt. For MTT analysis 20 μl of MTT solution (5 mg/ml in PBS) was added to each well containing cells. The plate was incubated at 37° C. for 5 hours. Media was removed with needle and syringe. 200 μl of DMSO was added to each well and pipetted up and down to dissolve crystals. Plate was placed into a 37° C. incubator for 5 minutes to dissolve air bubbles. Absorbance was read on an automated plate reader at a wavelength of 550 nm.
(§7) Percent net growth inhibition, as shown in FIGS. 2-7, was calculated using the seven absorbance measurements: absorbance by cells at time zero (Tz), absorbance by cells grown in the absence of drug (C), and absorbance of cells grown at the five drug concentrations (Ti). The following expression was used: % Net Growth=[(Ti−Tz)/(C−Tz)]×100 if Ti was greater than or equal to Tz. % Net Growth=[(Ti−Tz)/Tz]×100 if Ti was less than Tz.
(§8) Using the plot of Percent Net Growth as a function of drug concentration, lethality concentration “50%” (LC50), total growth inhibition (TGI) and growth inhibition “50%” (GI50) were determined as follows.

For series [2], the system named is MCF7 (Breast). Described as above. In kind it is cell-based. The settings on record: MCF7, 48 hours. Here is the method: as §1, §2, §3, §4, §5, §6, §7, §8
For series [3], the system named is H460 (Non-Small Cell Lung Cancer). Described as above. The following applies: H460, 48 hours. In kind it is cell-based. Here is the method:
as §1, §2, §3, §4, §5, §6, §7, §8

A short description of series [4]: Minimum amount of water/ethanol (1.5/4 v/v) required to dissolve the crude salt at boil (recrystallization). The class given is physicochemical. The text has this: For comparative purposes, between and among organic salts prepared in this manner and for the purposes of subsequent Example 3, Table 3, crude reaction products were recrystalized from water/ethanol (1.5/4 v/v per gram of salt) using the minimum amount of solvent to effect dissolution at boil.
In the case of succinic acid, the organic acid was dispensed as a half-equivalent in order to generate mitonafide hemisuccinate. […] Crude product that was isolated from the hydrogenation reaction mixture was analyzed for purity by high pressure liquid chromatography (HPLC) according to the conditions described in Table 1 above. The crude product was recrystallized from water/ethanol (1.5/4 v/v) using the minimum amount of solvent required to dissolve the crude product at boil, which is shown in the last column of Table 3 for each salt. The recrystallized product was then analyzed for purity by HPLC.
The purities of the crude salts were assessed by HPLC according to the conditions described in Table 1 above. The crude salts were then recrystallized from the minimum amount of water/ethanol (1.5/4 v/v) using the minimum amount of solvent required to dissolve the crude product at boil, which is shown in the last column of Table 3 for each salt. The resulting purified salts were again assessed for purity.
The hydrochloride and methanesulfonic acid salts of amonafide were prepared according to U.S. Pat. No. 5,420,137. Exemplary procedures are as follows: 3 g of crude amonafide free base, obtained as described in the previous two paragraphs, above, were dissolved under reflux in 60 ml of virtually anhydrous ethanol. Subsequently 1 ml of 35% (1 equivalent, estimated) strength hydrochloric acid was added dropwise while shaking vigorously. After cooling, the resulting crystals were filtered off and washed with 10 ml of anhydrous ethanol. The methanesulfonic acid salt was obtained using the same procedure, but replacing hydrochloric acid with 0.8 ml of methanesulfonic acid. The purity was assessed by HPLC using the conditions described in Table 1. The isolated products were then recrystallized from water/ethanol (1.5/4 v/v) using the minimum amounts of solvent required to dissolve the crude product at boil, which are shown for each salt in Table 3. The resulting purified salts were again assessed for purity.
The hydrochloride salt of amonafide was obtained by the method of Zee-Chang et al., U.S. Pat. No. 4,614,820. Exemplary conditions are as follows: a mixture of the hydrochloride salt of N-(dimethylaminoethyl)-3-nitro-1,8-naphthalimide and 10% palladium-on-charcoal in water was hydrogenated at room temperature under 40 lbs/in^2 of hydrogen for one hour. […] To the mixture was added 3 ml of concentrated hydrochloric acid. It was then filtered and the filtrate was evaporated to dryness under reduced pressure. The residue was triturated with 30 ml of absolute ethanol and filtered. The resulting solid was then washed with ether and dried. The purity was assessed by HPLC using the conditions described in Table 1. The crude product was then recrystallized from water/ethanol (1.5/4 v/v) using the minimum amount of solvent (40 mL/g) required to dissolve the crude product at boil. The resulting purified salts were again assessed for purity.

[5] abbreviates: Percent Net Growth -50%, read-out: LC50 (the source's name).

One may read the TGI as the concentration at which net growth stops. A low value points to more potent growth arrest. In general, GI50 refers to the concentration that inhibits growth by half. A high value points to less potent growth inhibition. Consider `CN(C)CCN1C(=O)c2cccc3cc(N)cc(c23)C1=O.O=C(O)C[C@H](O)C(=O)O` [Amonafide Malate], for which the figures for the concentration for total growth inhibition (TGI) in series [1] (Percent Net Growth 0%), in series [2] (Percent Net Growth 0%) and in series [3] (Percent Net Growth 0%) were 154 µM, 110 µM and 96 µM, respectively. Besides, the GI50 in series [1] (Percent Net Growth 50%) was determined as 7.7 µM; in series [2] (Percent Net Growth 50%) it was 5.16 µM; in series [3] (Percent Net Growth 50%) it was 4.11 µM. Also, the CC50 in series [2] (setting [5]) was 662 µM; in series [3] (setting [5]), 170 µM. For the same compound, in series [4] (minimum water/ethanol (1.5/4 v/v) to dissolve crude product at boil, salt made by the method in column 2), the “Solvent” value was 7.5 mL/g. Further, the “recrystallization volume for purification, malate compared with HCl” value in series [4] (water/ethanol 1.5/4 v/v) was determined as 5 times smaller.
